Measurements published in patent US9187472B2 (AbbVie Inc., priority 2012, dated 2015).

Tests used:
[1] = target: NAMPT (human, recombinant, C-terminally His-tagged) (Homo sapiens, UniProt P43490); test: Time-Resolved Fluorescence Resonance Energy Transfer (TR-FRET) Binding Assay of NAMPT; details: without substrates; 6.8 nM NAMPT, 200 nM probe, 3 hours equilibration
In short: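 Compounds, diluted in half-log steps, are mixed with enzyme (6.8 nM), fluorescent probe (200 nM) and Tb-anti-His antibody (1 nM) in pH 7.5 HEPES buffer containing 10 mM MgCl2 and 1 mM DTT. Plates equilibrate 3 h at room temperature; normalized FRET ratios are fitted by four-parameter logistic regression for IC50.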

NAMPT = NAMPT (Homo sapiens, UniProt P43490); test: TR-FRET Binding Assay of NAMPT with PRPP; details: with 200 μM PRPP and 2.5 mM ATP; 2 nM NAMPT, 2 nM probe, 16 hours equilibration
In short: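 Compounds were mixed with 2 nM His-tagged NAMPT, 2 nM probe, 1 nM terbium anti-His antibody, 200 μM PRPP and 2.5 mM ATP in assay buffer with 2% DMSO, then left 16 hours to permit possible enzymatic processing of compounds before time-resolved FRET was measured.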

PC3 cells = test: NAMPT Cell Proliferation Assay; format: cell-based; details: Homo sapiens, PC-3, 120 h, 5 days incubation, cell viability by Cell Titer Glo
In short: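 Seed PC3 at 500 cells/well (RPMI, 10% HI-FBS), attach overnight; add compound, 10-fold series 10 μM → 1×10^−5 μM; incubate 5 d, 37° C/5% CO2; luminescent viability readout; fit % inhibition sigmoidally for IC50.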

NAMPT, sequence (P43490 whole entry): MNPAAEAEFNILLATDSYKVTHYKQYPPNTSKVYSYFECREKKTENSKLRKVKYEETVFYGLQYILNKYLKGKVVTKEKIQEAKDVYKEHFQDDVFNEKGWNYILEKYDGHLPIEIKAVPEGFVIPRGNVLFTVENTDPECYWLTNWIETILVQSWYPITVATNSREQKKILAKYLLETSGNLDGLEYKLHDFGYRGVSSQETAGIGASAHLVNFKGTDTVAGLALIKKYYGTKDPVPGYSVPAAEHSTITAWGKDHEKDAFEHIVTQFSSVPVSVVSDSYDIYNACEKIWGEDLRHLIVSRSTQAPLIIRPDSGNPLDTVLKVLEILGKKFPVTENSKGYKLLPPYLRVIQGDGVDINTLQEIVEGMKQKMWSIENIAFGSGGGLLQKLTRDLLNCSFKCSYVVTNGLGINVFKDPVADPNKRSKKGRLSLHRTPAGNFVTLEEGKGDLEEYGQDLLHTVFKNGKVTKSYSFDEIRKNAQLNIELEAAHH
NAMPT (human, recombinant, C-terminally His-tagged), sequence (P43490 whole entry): as above

Structure (SMILES) | IC50 [1] [nM] | IC50 (NAMPT) [nM] | IC50 (PC3 cells) [nM]
CC(C)(C)OC(=O)N1CCC(c2ccc(C(=O)Nc3ccc4ncc(Cl)n4c3)cc2)CC1 [Example 491, tert-butyl 4-{4-[(3-chloroimidazo[1,2-a]pyridin-6-yl)carbamoyl]phenyl}piperidine-1-carboxylate] | > 10000 | 1.9 | 7830
CC(C)OCC(=O)N1CCC(c2ccc(C(=O)NCc3ccn4ccnc4c3)cc2)CC1 [Example 237, N-(imidazo[1,2-a]pyridin-7-ylmethyl)-4-{1-[(propan-2-yloxy)acetyl]piperidin-4-yl}benzamide] | 451 | 0.285 | 37.2
O=C(NCc1ccn2ccnc2c1)c1ccc(C2CCN(C(=O)c3ccccc3F)CC2)o1 [Example 735, 5-[1-(2-fluorobenzoyl)piperidin-4-yl]-N-(imidazo[1,2-a]pyridin-7-ylmethyl)furan-2-carboxamide] | 646 | 0.864 | 688
O=C(CC1CCOCC1)Nc1ccc(NC(=O)Nc2ccc3nccn3c2)cc1 [Example 40] | 40.9 | 0.217 | 70.8
CC(C)(C)CC(=O)N1CCC(c2ccc(C(=O)NCc3ccn4ccnc4c3)cc2)C1 (stereo not drawn) [Example 602, 4-[1-(3,3-dimethylbutanoyl)pyrrolidin-3-yl]-N-(imidazo[1,2-a]pyridin-7-ylmethyl)benzamide] | 786 | 0.887 | 48.6
Cc1ccccc1C(=O)N1CCC(c2ccc(C(=O)NCc3ccn4ccnc4c3)cc2)C1 (stereo not drawn) [Example 595, N-(imidazo[1,2-a]pyridin-7-ylmethyl)-4-[1-(2-methylbenzoyl)pyrrolidin-3-yl]benzamide] | 133 | 0.746 | 6.93
CCCC(=O)Nc1ccc(NC(=O)Nc2ccc3nccn3c2)cc1 [Example 44] | 396 | 0.496 | 1580
O=C(NCc1ccc2nccn2c1)c1cnc(N(CC2CCCO2)C(=O)CCc2cnoc2)s1 (stereo not drawn) [Example 135, N-(imidazo[1,2-a]pyridin-6-ylmethyl)-2-{[3-(1,2-oxazol-4-yl)propanoyl](tetrahydrofuran-2-ylmethyl)amino}-1,3-thiazole-5-carboxamide] | 73.8 | 1.27 | 6.36
O=C(Nc1ccc(C2CCN(C(=O)C3CCCO3)CC2)cc1)Nc1ccc2nccn2c1 (stereo not drawn) [Example 113, 1-imidazo[1,2-a]pyridin-6-yl-3-{4-[1-(tetrahydrofuran-2-ylcarbonyl)piperidin-4-yl]phenyl}urea] | 356 | 0.169 | 93.3
CC(C)(C)OC(=O)N1CCC(Cn2cc(-c3ccc(C(=O)NCc4ccn5ccnc5c4)s3)cn2)CC1 [Example 466, tert-butyl 4-[(4-{5-[(imidazo[1,2-a]pyridin-7-ylmethyl)carbamoyl]thiophen-2-yl}-1H-pyrazol-1-yl)methyl]piperidine-1-carboxylate] | 74.9 | 0.287 | 4.31
COCCOCC(=O)N1CC=C(c2ccc(NC(=O)Nc3ccc4nccn4c3)cc2)CC1 [Example 32, 1-imidazo[1,2-a]pyridin-6-yl-3-(4-{1-[(2-methoxyethoxy)acetyl]-1,2,3,6-tetrahydropyridin-4-yl}phenyl)urea] | 906 | 0.169 | 284
CC(C)Cc1ccc(-c2ccc(C(=O)NCc3ccn4ccnc4c3)o2)cc1 [Example 747, N-(imidazo[1,2-a]pyridin-7-ylmethyl)-5-[4-(2-methylpropyl)phenyl]furan-2-carboxamide] | 435 | 1.75 | 942
CC[C@H](C)C(=O)N1CC(Oc2ccc(C(=O)NCc3ccn4ccnc4c3)cc2)C1 [Example 559, N-(imidazo[1,2-a]pyridin-7-ylmethyl)-4-({1-[(2S)-2-methylbutanoyl]azetidin-3-yl}oxy)benzamide] | 681 | 0.223 | 94.3
O=C(NCc1ccn2ccnc2c1)Nc1ccc(C2CCN(C(=O)CC3CCOCC3)C2)cc1 (stereo not drawn) [Example 391, 1-(imidazo[1,2-a]pyridin-7-ylmethyl)-3-{4-[1-(tetrahydro-2H-pyran-4-ylacetyl)pyrrolidin-3-yl]phenyl}urea] | 171 | 0.227 | 78.4
CC(C)(C)C(=O)N1CC(c2ccc(C(=O)NCc3ccn4ccnc4c3)cc2)C1 [Example 633, 4-[1-(2,2-dimethylpropanoyl)azetidin-3-yl]-N-(imidazo[1,2-a]pyridin-7-ylmethyl)benzamide] | 335 | 0.707 | 12
O=C(NCc1ccn2ccnc2c1)Nc1ccc(O[C@@H]2CCN(C(=O)[C@H]3CCCO3)C2)cc1 [Example 335, 1-(imidazo[1,2-a]pyridin-7-ylmethyl)-3-[4-({(3R)-1-[(2R)-tetrahydrofuran-2-ylcarbonyl]pyrrolidin-3-yl}oxy)phenyl]urea] | 632 | 0.354 | 97.6
O=C(CCC1CCCC1)Nc1ccc(C(=O)NCc2ccc3nccn3c2)cc1 [Example 81, 4-[(3-cyclopentylpropanoyl)amino]-N-(imidazo[1,2-a]pyridin-6-ylmethyl)benzamide] | 15.5 | 2.68 | 7.1
O=C(NCc1ccn2ccnc2c1)Nc1ccc(-c2cnn(CC3CCOCC3)c2)cc1 [Example 675, 1-(imidazo[1,2-a]pyridin-7-ylmethyl)-3-{4-[1-(tetrahydro-2H-pyran-4-ylmethyl)-1H-pyrazol-4-yl]phenyl}urea] | 376 | 2.07 | 69.8

Next, values leading:

IC50 [1] [nM] | IC50 (NAMPT) [nM] | IC50 (PC3 cells) [nM] | Structure (SMILES)
544 | 0.79 | 18.8 | CC(C)C(C)C(=O)N1CCC(c2ccc(C(=O)NCc3ccn4ccnc4c3)cc2)C1 (stereo not drawn) [Example 615, 4-[1-(2,3-dimethylbutanoyl)pyrrolidin-3-yl]-N-(imidazo[1,2-a]pyridin-7-ylmethyl)benzamide]
11.3 | 0.213 | 13 | CC(C)CCC(=O)Nc1ccc(NC(=O)NCc2ccn3ccnc3c2)cc1 [Example 280, N-(4-{[(imidazo[1,2-a]pyridin-7-ylmethyl)carbamoyl]amino}phenyl)-4-methylpentanamide]
347 | 0.916 | 140 | O=C(NCc1ccn2ccnc2c1)c1ccc(C2CCN(C(=O)c3nccs3)C2)cc1 (stereo not drawn) [Example 613, N-(imidazo[1,2-a]pyridin-7-ylmethyl)-4-[1-(1,3-thiazol-2-ylcarbonyl)pyrrolidin-3-yl]benzamide]
353 | 0.648 | 83.5 | O=C(NCc1ccn2ccnc2c1)c1ccc(C2CN(C(=O)c3cncs3)C2)cc1 [Example 634, N-(imidazo[1,2-a]pyridin-7-ylmethyl)-4-[1-(1,3-thiazol-5-ylcarbonyl)azetidin-3-yl]benzamide]
491 | 0.539 | 110 | CC(C)(O)C(=O)N1CCC(c2ccc(NC(=O)NCc3ccn4ccnc4c3)cc2)C1 (stereo not drawn) [Example 385, 1-{4-[1-(2-hydroxy-2-methylpropanoyl)pyrrolidin-3-yl]phenyl}-3-(imidazo[1,2-a]pyridin-7-ylmethyl)urea]
773 | 0.685 | 65.6 | O=C(NCCCCC1CCN(C(=O)CCC(F)(F)F)CC1)Nc1ccc2nccn2c1 [Example 65, 1-imidazo[1,2-a]pyridin-6-yl-3-{4-[1-(4,4,4-trifluorobutanoyl)piperidin-4-yl]butyl}urea]
404 | 0.169 | 102 | CCC(C)CNC(=O)c1ccc(NC(=O)Nc2ccc3nccn3c2)cc1 (stereo not drawn) [Example 20, 4-[(imidazo[1,2-a]pyridin-6-ylcarbamoyl)amino]-N-(2-methylbutyl)benzamide]
12.2 | 0.445 | 1.49 | CC(C)Cn1cc(-c2ccc(C(=O)NCc3ccc4nccn4c3)s2)cn1 [Example 75, N-(imidazo[1,2-a]pyridin-6-ylmethyl)-5-[1-(2-methylpropyl)-1H-pyrazol-4-yl]thiophene-2-carboxamide]
49.1 | 1.25 | 2.76 | CC[C@H](C)C(=O)N1CCC(c2ccc(NC(=O)NCc3ccn4ccnc4c3)cc2)CC1 [Example 710, 1-(imidazo[1,2-a]pyridin-7-ylmethyl)-3-(4-{1-[(2S)-2-methylbutanoyl]piperidin-4-yl}phenyl)urea]
70.8 | 0.573 | 3.47 | Cn1cccc1C(=O)N1CCC(c2ccc(C(=O)NCc3ccn4ccnc4c3)s2)C1 (stereo not drawn) [Example 771, N-(imidazo[1,2-a]pyridin-7-ylmethyl)-5-{1-[(1-methyl-1H-pyrrol-2-yl)carbonyl]pyrrolidin-3-yl}thiophene-2-carboxamide]
866 | 1 | 57.3 | O=C(NCc1ccn2ccnc2c1)c1ccc(C2=CCN(S(=O)(=O)c3ccccc3)CC2)o1 [Example 801, N-(imidazo[1,2-a]pyridin-7-ylmethyl)-5-[1-(phenylsulfonyl)-1,2,3,6-tetrahydropyridin-4-yl]furan-2-carboxamide]
